Assay results from patent publication US20110105397A1, “METHOD FOR TREATING HEART FAILURE WITH STRESSCOPIN-LIKE PEPTIDES” (priority 2009, published 2011).
Where a SMILES comes first, the peptide text is derived from it. The star is where a group is joined. Succinimide(1-Et,3-yl) = CCN1C(=O)CC(*)C1=O

Biological target: T1, human CRHR2 (Homo sapiens, UniProt Q13324)
T1 construct: expressed in transfected cells
T1 sequence (Q13324 1-411): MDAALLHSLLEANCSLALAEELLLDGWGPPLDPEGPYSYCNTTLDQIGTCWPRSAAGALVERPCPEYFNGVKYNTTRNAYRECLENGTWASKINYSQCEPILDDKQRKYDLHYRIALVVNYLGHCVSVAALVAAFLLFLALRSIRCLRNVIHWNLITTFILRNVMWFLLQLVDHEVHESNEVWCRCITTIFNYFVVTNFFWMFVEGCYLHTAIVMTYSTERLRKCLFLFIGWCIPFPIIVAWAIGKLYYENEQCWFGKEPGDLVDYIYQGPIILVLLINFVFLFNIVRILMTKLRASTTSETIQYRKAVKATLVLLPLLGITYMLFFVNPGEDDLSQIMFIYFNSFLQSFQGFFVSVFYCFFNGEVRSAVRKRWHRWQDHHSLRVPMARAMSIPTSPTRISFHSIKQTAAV
Experiment: cAMP assay, h-CRHR2 transfected SK-N-MC cells
Format: cell-based
Conditions: Table 13; for EC50: cysteine mutation, N-ethylmaleimide capping, pegylation, read-out: pA50 (converted); for Log DR [M]: h-SCP control pA50 minus test compound pA50 within the same assay batch
Description: The concentration required for 50% maximum effect (A50) was 0.4 nM.
Human CRHR1 (accession number X72304) or CRHR2 (accession number U34587) were cloned into pcDNA3.1/Zeo expression vector and stably transfected into SK—N-MC cells by electroporation. Cells were maintained in MEM w/Earl's Salt with 10% FBS, 50 I.U. penicillin, 50 μg/ml streptomycin, 2 mM L-glutamine, 1 mM sodium pyruvate and 0.1 mM non-essential amino acids, 600 μg/ml G418. Cells were grown at 37° C. in 5% CO2
Cells were plated in 96-well tissue culture dishes (Biocoat from BD Biosciences) overnight at 50,000 cell/well. Cells were washed with PBS then resuspended in DMEM F-12 without phenol red, containing 10 μM isobutylmethylxanthine (IBMX). Cells were incubated with the peptides at concentrations ranging from 1 pM to 10 μM for 60 min at 37° Celsius. […] Forskolin (10 μM), a direct stimulant of adenylate cyclase, was used as positive control. The assays were stopped by the addition of 0.5 M HCl and mixing by orbital rotation for 2 h at 4° Celsius.
To assess the activity of the inventive polypeptide at the CRHR2, an intracellular cAMP measurement test using a Flash plate radioactive assay (Catalog No. Cus56088; Perkin Elmer, Mass., U.S.A.) was employed.
Transfected SK—N-MC cells were plated in 96-well Biocoat tissue culture dishes (BD Biosciences, San Jose, Calif., U.S.A) overnight at 50,000 cell/well. Cells were first washed with PBS and then suspended with DMEM/F-12 without phenol red, containing […]. Suspended cells were transferred into a 96-well flash plate coated with scintillant fluid. Cells were incubated with peptides ranging from 1 pM to 1 μM, for 60 min, at 37° Celsius. Forskolin at 10 μM was used as positive control. After ligand stimulation, cells were lysed by the addition of 0.5M HCl and mixed by orbital rotation for 2 h at 4° Celsius in order to release intracellular cAMP into the media.
Media containing released intracellular cAMP was transferred to a 96-well flash plate coated with scintillant fluid containing an anti-cAMP antibody. In this assay, intracellular cAMP competes with ^125I-labeled cAMP binding to the antibody. To generate a standard curve, cAMP ranging from 2.5 to 250 pmoles/ml was included in the experiment. [^125I]-cAMP was measured on a TopCount scintillation counter (Perkin Elmer, Mass., U.S.A).
Individual agonist concentration-response curve data were fitted to the Hill equation, see formula below, using GraphPad Prism (Graphpad Software, La Jolla, Calif., U.S.A.), to provide estimates of agonist concentration needed to generate one-half maximal response (A50), and the maximal asymptote (α) and Hill slope (nH) parameters. In this equation, [A] is the agonist concentration and E is the measured effect:
For display purposes the mean fitted parameter estimates were used to generate a single E/[A] curve shown superimposed on the mean experimental data. Potency estimates for agonists, pA50, are expressed as the negative logarithm of the midpoint of each curve and listed with their standard error of measurement (SEM). Logarithm base 10 of the agonist dose ratio (Log DR) values were calculated by subtraction of the test compound pA50 value from the corresponding h-SCP (SEQ ID NO:1) control pA50 value within the same assay batch. The SEM values of the Log DR values are given by the square root of the sum of the squared SEM values of the h-SCP (SEQ ID NO:1) control and test compound pA50 values.
Human and rat peptides (see Table 10) were used on the stimulation of h-CRHR1 or h-CRHR2 transfected SK—N-MC cells in the cAMP flash plate assay. Peptides were incubated for 1 hr at 37° Celsius. Curves were calculated using non-linear regression sigmoidal concentration-response analysis calculation in GraphPad Prism. The so obtained pA50 values are shown in Table 11 in addition to literature values. […]

CC[C@H](C)[C@H](NC(=O)[C@H](CCC(N)=O)NC(=O)[C@H](C)NC(=O)[C@H](CCSC)NC(=O)[C@H](CC(C)C)NC(=O)[C@H](Cc1c[nH]cn1)NC(=O)[C@H](C)NC(=O)[C@H](CC(N)=O)NC(=O)[C@H](C)NC(=O)[C@H](CSC1CC(=O)N(CC)C1=O)NC(=O)[C@H](C)NC(=O)[C@H](CCC(N)=O)NC(=O)[C@H](C)NC(=O)[C@H](CCCNC(=N)N)NC(=O)[C@H](CC(C)C)NC(=O)[C@H](CC(N)=O)NC(=O)[C@H](CCCCN)NC(=O)[C@H](C)NC(=O)[C@H](CCCCN)NC(=O)[C@H](C)NC(=O)[C@@H](NC(=O)[C@H](CC(N)=O)NC(=O)[C@H](Cc1ccccc1)NC(=O)[C@H](CC(C)C)NC(=O)[C@H](CC(C)C)NC(=O)[C@H](CC(N)=O)NC(=O)[C@H](CCSC)NC(=O)[C@@H](NC(=O)[C@H](CC(N)=O)NC(=O)[C@@H](NC(=O)[C@@H]1CCCN1C(=O)[C@@H](NC(=O)[C@H](CC(=O)O)NC(=O)[C@H](CC(C)C)NC(=O)[C@H](CO)NC(=O)[C@H](CC(C)C)NC(=O)[C@@H](NC(=O)[C@H](Cc1ccccc1)NC(=O)[C@H](CCCCN)NC(=O)[C@@H](N)[C@@H](C)O)[C@@H](C)O)C(C)C)[C@@H](C)O)[C@@H](C)CC)[C@@H](C)CC)C(N)=O (some centres unmarked) [SEQ ID NO: 46, TKFTLSLDVPTNIMNLLFNIAKAKNLRAQAC(-NES)ANAH LMAQI-NH2] (H-TKFTLSLDVPTNIMNLLFNIAKAKNLRAQAC(Succinimide(1-Et,3-yl))ANAHLMAQI-NH2; N-terminus assumed)
EC50: 372 pM
Log DR [M]: 0.04

CC[C@H](C)[C@H](NC(=O)[C@H](CCC(N)=O)NC(=O)[C@H](C)NC(=O)[C@H](CCSC)NC(=O)[C@H](CC(C)C)NC(=O)[C@H](Cc1c[nH]cn1)NC(=O)[C@H](C)NC(=O)[C@H](CC(N)=O)NC(=O)[C@H](C)NC(=O)[C@H](C)NC(=O)[C@H](C)NC(=O)[C@H](CCC(N)=O)NC(=O)[C@H](CSC1CC(=O)N(CC)C1=O)NC(=O)[C@H](CCCNC(=N)N)NC(=O)[C@H](CC(C)C)NC(=O)[C@H](CC(N)=O)NC(=O)[C@H](CCCCN)NC(=O)[C@H](C)NC(=O)[C@H](CCCCN)NC(=O)[C@H](C)NC(=O)[C@@H](NC(=O)[C@H](CC(N)=O)NC(=O)[C@H](Cc1ccccc1)NC(=O)[C@H](CC(C)C)NC(=O)[C@H](CC(C)C)NC(=O)[C@H](CC(N)=O)NC(=O)[C@H](CCSC)NC(=O)[C@@H](NC(=O)[C@H](CC(N)=O)NC(=O)[C@@H](NC(=O)[C@@H]1CCCN1C(=O)[C@@H](NC(=O)[C@H](CC(=O)O)NC(=O)[C@H](CC(C)C)NC(=O)[C@H](CO)NC(=O)[C@H](CC(C)C)NC(=O)[C@@H](NC(=O)[C@H](Cc1ccccc1)NC(=O)[C@H](CCCCN)NC(=O)[C@@H](N)[C@@H](C)O)[C@@H](C)O)C(C)C)[C@@H](C)O)[C@@H](C)CC)[C@@H](C)CC)C(N)=O (some centres unmarked) [SEQ ID NO: 47, TKFTLSLDVPTNIMNLLFNIAKAKNLRC(-NES)QA AANAH LMAQI-NH2] (H-TKFTLSLDVPTNIMNLLFNIAKAKNLRC(Succinimide(1-Et,3-yl))QAAANAHLMAQI-NH2)
EC50: 316 pM
Log DR [M]: −0.03

CC[C@H](C)[C@H](NC(=O)[C@H](CCC(N)=O)NC(=O)[C@H](C)NC(=O)[C@H](CCSC)NC(=O)[C@H](CC(C)C)NC(=O)[C@H](Cc1c[nH]cn1)NC(=O)[C@H](C)NC(=O)[C@H](CC(N)=O)NC(=O)[C@H](C)NC(=O)[C@H](C)NC(=O)[C@H](C)NC(=O)[C@H](CCC(N)=O)NC(=O)[C@H](C)NC(=O)[C@H](CCCNC(=N)N)NC(=O)[C@H](CSC1CC(=O)N(CC)C1=O)NC(=O)[C@H](CC(N)=O)NC(=O)[C@H](CCCCN)NC(=O)[C@H](C)NC(=O)[C@H](CCCCN)NC(=O)[C@H](C)NC(=O)[C@@H](NC(=O)[C@H](CC(N)=O)NC(=O)[C@H](Cc1ccccc1)NC(=O)[C@H](CC(C)C)NC(=O)[C@H](CC(C)C)NC(=O)[C@H](CC(N)=O)NC(=O)[C@H](CCSC)NC(=O)[C@@H](NC(=O)[C@H](CC(N)=O)NC(=O)[C@@H](NC(=O)[C@@H]1CCCN1C(=O)[C@@H](NC(=O)[C@H](CC(=O)O)NC(=O)[C@H](CC(C)C)NC(=O)[C@H](CO)NC(=O)[C@H](CC(C)C)NC(=O)[C@@H](NC(=O)[C@H](Cc1ccccc1)NC(=O)[C@H](CCCCN)NC(=O)[C@@H](N)[C@@H](C)O)[C@@H](C)O)C(C)C)[C@@H](C)O)[C@@H](C)CC)[C@@H](C)CC)C(N)=O (some centres unmarked) [SEQ ID NO: 48, TKFTLSLDVPTNIMNLLFNIAKAKNC(-NES)RAQA AANAH LMAQI-NH2] (H-TKFTLSLDVPTNIMNLLFNIAKAKNC(Succinimide(1-Et,3-yl))RAQAAANAHLMAQI-NH2; N-terminus assumed)
EC50: 363 pM
Log DR [M]: 0.03

CC[C@H](C)[C@H](NC(=O)[C@H](CCC(N)=O)NC(=O)[C@H](C)NC(=O)[C@H](CCSC)NC(=O)[C@H](CC(C)C)NC(=O)[C@H](Cc1c[nH]cn1)NC(=O)[C@H](C)NC(=O)[C@H](CC(N)=O)NC(=O)[C@H](C)NC(=O)[C@H](C)NC(=O)[C@H](C)NC(=O)[C@H](CCC(N)=O)NC(=O)[C@H](C)NC(=O)[C@H](CCCNC(=N)N)NC(=O)[C@H](CC(C)C)NC(=O)[C@H](CSC1CC(=O)N(CC)C1=O)NC(=O)[C@H](CCCCN)NC(=O)[C@H](C)NC(=O)[C@H](CCCCN)NC(=O)[C@H](C)NC(=O)[C@@H](NC(=O)[C@H](CC(N)=O)NC(=O)[C@H](Cc1ccccc1)NC(=O)[C@H](CC(C)C)NC(=O)[C@H](CC(C)C)NC(=O)[C@H](CC(N)=O)NC(=O)[C@H](CCSC)NC(=O)[C@@H](NC(=O)[C@H](CC(N)=O)NC(=O)[C@@H](NC(=O)[C@@H]1CCCN1C(=O)[C@@H](NC(=O)[C@H](CC(=O)O)NC(=O)[C@H](CC(C)C)NC(=O)[C@H](CO)NC(=O)[C@H](CC(C)C)NC(=O)[C@@H](NC(=O)[C@H](Cc1ccccc1)NC(=O)[C@H](CCCCN)NC(=O)[C@@H](N)[C@@H](C)O)[C@@H](C)O)C(C)C)[C@@H](C)O)[C@@H](C)CC)[C@@H](C)CC)C(N)=O (some centres unmarked) [SEQ ID NO: 49, TKFTLSLDVPTNIMNLLFNIAKAKC(-NES) LRAQA AANAH LMAQI-NH2] (H-TKFTLSLDVPTNIMNLLFNIAKAKC(Succinimide(1-Et,3-yl))LRAQAAANAHLMAQI-NH2; N-terminus assumed)
EC50: 437 pM
Log DR [M]: 0.11
